Patent publication US20240150282A1, “NOVEL CRYSTALLINE COMPOUND OF SIPONIMOD HEMIFUMARATE” (OLON S.P.A., priority 2021, published 2024)

Assays:
[1] = Stability of the crystalline form during isolation and drying; type: physicochemical
Text: According to another of its aspects, subject-matter of the invention is a process for the preparation of the NP01 Form of Siponimod Hemifumarate, comprising carrying out the steps (a) and (b) stated above for the preparation of the NP04 Form.

[2] = Stability assays of the NP04 Form (storage, humidity, shredding, compression); type: physicochemical
Protocol: Stability assays of the NP04 Form
Aliquots of the compound obtained from Example 1 were subjected to the following assays: • closed in a sealed bottle for 8 days • at 25° C. with 100% relative humidity for 7 days • at 25° C. with 60% relative humidity for 7 days • at 60° C. with 75% relative humidity for 3 days • shredding treatment • Compression test under 1, 2 and 3 tons

Structure (SMILES)	stability of the crystalline form [1]	solid form stability (form recovered after treatment) ([2]; 25° C. with 60% relative humidity for 7 days)	solid form stability (form recovered after treatment) ([2]; 25° C. with 100% relative humidity for 7 days)	solid form stability (form recovered after treatment) ([2]; 60° C. with 75% relative humidity for 3 days)	solid form stability (form recovered after treatment) ([2]; closed in a sealed bottle for 8 days)	solid form stability (form recovered after treatment) ([2]; compression test under 1, 2 and 3 tons)	solid form stability (form recovered after treatment) ([2]; shredding treatment)
CCc1cc(/C(C)=N/OCc2ccc(C3CCCCC3)c(C(F)(F)F)c2)ccc1CN1CC(C(=O)O)C1 [NP01 Form, Siponimod Hemifumarate]	unstable and converts to the NP04 Form						
CCc1cc(/C(C)=N/OCc2ccc(C3CCCCC3)c(C(F)(F)F)c2)ccc1CN1CC(C(=O)O)C1 [NP04 Form, Siponimod Hemifumarate]		stable	stable	stable	stable	stable	stable
